Source: patent US5604226A, “Pyridazinone derivatives, processes for production thereof and use thereof” (Nihon Nohyaku Co., Ltd., priority 1993, dated 1997)

Tests used:
[1] = system: thrombocytopenia in mice (collagen-induced, platelet count); assay: Activity of preventing thrombocytopenia in mice, collagen i.v. (Experiment 3); format: in vivo, male ddY mice; details: Mus musculus, 3.0 mg/kg oral, 1 hour before collagen 0.5 mg/kg i.v., * p = 5%, ** p = 1%, *** p = 0.1%, read-out: Average Inhibition Rate (platelet count; normal mouse 100, control mouse 0)
Experimental: Activity of preventing thrombocytopenia in mice:
Collagen (Holm Co.) diluted with physiological saline was intravenously given through the vein to male ddY mice of 6 weeks old, weighing 28-31 g, which had been fasted for 4-5 hours, in a dose of 0.5 mg/kg. Five minutes after, blood was collected from the lower thigh vein under pentobarbital anesthesia through a plastic syringe treated with heparin containing 3.8% sodium citrate. The drug was orally given an hour before the collagen administration. The platelet count was measured with Sysmex E-4000. The inhibition activity is shown in terms of percentage of the platelet count when the platelet count of normal mouse was made 100 and the platelet count of control mouse was made 0.

[2] = system: Platelet aggregation (ADP, rabbit platelet rich plasma); assay: Platelet aggregation inhibition in rabbit PRP, ADP-induced, Born's turbidimetry (Experiment 1); format: cell-based; details: Oryctolagus cuniculus, 0.05 h, ADP 2 to 4 μM, 3 min incubation, read-out: Aggregation Inhibition Rate
Experimental: Blood was collected from the ear vein of rabbit, together with 1/10 volume sodium citrate. Centrifugation at 1,200 rpm for 10 minutes gave the supernatant which was made platelet rich plasma (PRP). The blood was further centrifuged at 3,000 rpm for 10 minutes to give platelet poor plasma (PPP). The platelet count of PRP was adjusted to 300,000/μl with PPP, which was provided for the test. Platelet aggregation was determined with aggregometer (HEMATRACERVI, Niko Bioscience Co.) based on Born's turbidimetry. That is, 200 μl of PRP was charged in a cell and 1 μl of a drug solution dissolved in dimethylsulfoxide was added thereto. After incubation for 3 minutes, ADP was added in a concentration of 2 to 4 μM to cause aggregation. Change in transmittance in the cell was then monitored. The results are shown in Table 2, in terms of aggregation inhibition rate which was determined by comparing a transmittance of control with that obtained at the maximum aggregation on an aggregation curve when the transmittance of PRP was made 0% and the transmittance of PPP was made 100%.

[3] = system: ADP-inducing platelet aggregation; assay: Rabbit exo-vivo test, ADP-inducing platelet aggregation after oral administration (Experiment 2); format: in vivo, Japanese white rabbits
Experimental: Japanese white rabbits weighing 3.0-4.0 kg were fasted for 18 hours. A drug suspension in 2% gum arabic aqueous solution was orally given to the animal in a definite dose. Blood was collected 1 and 4 hours after. PRP was prepared in a manner similar to Experiment 1 and ADP-inducing platelet aggregation function was determined. An inhibition rate was calculated based on an aggregation rate of ADP prior to administration of the compound.

`COc1ccc(CNc2c(OCC[S+]([O-])c3ccccc3)n[nH]c(=O)c2Br)cc1OC` (stereo not shown) [Compound 8, 4-bromo-5-(3,4-dimethoxyphenylmethylamino)-6-[2-(phenylsulfinyl)ethyloxy]-3(2H)-pyridazinone] showed an inhibition in vivo at 3 mg/kg [1] of 45%, an inhibition at 1 µg/mL ([2]; 10^-6 g/ml) of 100% and an inhibition at 0.1 µg/mL ([2]; 10^-7 g/ml) of 82%. The “Average Inhibition Rate” value ([3]; 3 mg/kg oral, 1 Hour) was 48%, the “Average Inhibition Rate” value ([3]; 3 mg/kg oral, 4 Hours) was 23% and the “Average Inhibition Rate” value ([3]; 30 mg/kg oral, 1 Hour) was 72%. For the same compound, the “Average Inhibition Rate” value ([3]; 30 mg/kg oral, 4 Hours) was 70%.
